The source of these data is article PMC12030062, “From In Vitro Cytotoxicity to In Vivo Zebrafish Assays: A Study on 3,3-Dichloro β-, γ- and δ-Lactams and Their Biological Activity Profiles” (Pharmaceuticals, 2025).

Data set [1] is described as follows: Hemolysis assay with human erythrocytes. The data set is classed as cell-based. The following applies: human, washed human erythrocyte suspension, pH 7.4; 10 µg/mL; read-out: degree of hemolysis. The procedure: (§1) In this context, non-hemolytic compounds are essential, as they enhance the safety and efficacy of lactam-based drugs by reducing adverse effects while maintaining their antitumor activity. In accordance with EU regulations (ISO 10993-4), the assessment of the biological compatibility of new compounds that may come into contact with the blood necessitates in vitro hemocompatibility evaluations. In this study, the extent of hemolysis induced by the different compounds was assessed by incubating them with an erythrocyte suspension. The hemolytic response of compounds 1–10 was evaluated at two concentrations (10 and 80 µg/mL), the results of which are presented in Figure 3.
(§2) • In Vitro Assay Using Human Erythrocytes • - Acquisition and Extraction of the Erythrocytes Human blood samples were obtained from the Banc de Sang i Teixits de Barcelona (Spain) from the Catalan Department of Health. Blood was deposited in tubes with the anticoagulant EDTA-K3. Blood samples were centrifuged at 3000 rpm and 4 °C for 10 min (Megafuge 2.0 R. Heraeus Instruments, Hanau, Germany) to induce sedimentation. Plasma was extracted with a Pasteur pipette. Next, the residual pellet was washed with PBS at pH 7.4. This procedure was repeated three times to remove residual leukocytes and platelets and to concentrate the erythrocytes. Following the last wash, the erythrocyte suspension was diluted (1:1) in PBS at pH 7.4 to obtain a suitable erythrocyte suspension (cell density of 8 × 10^9 cell/mL). • - Hemolysis Assay The hemolysis assay determined the capability of different compounds to induce the hemolysis of the erythrocyte membrane. Stock solutions of each compound at 1 mg/mL in PBS at pH 7.4 were prepared. Different volumes (10–80 μL) were placed in polystyrene tubes, and an aliquot of 25 µL of the erythrocyte suspensions was added to each tube. The final volume was 1 mL. The tubes were incubated at room temperature under rotatory conditions. Then, the tubes were centrifuged at 10,000 rpm for 5 min. The supernatants’ absorbance at 540 nm (Shimadzu UV-160A, Shimadzu, Duisburg, Germany) was compared with that of the positive (erythrocytes hemolyzed with distilled water) and negative (erythrocyte suspension in PBS at pH 7.4) controls. The degree of hemolysis was determined using the following equation: Hemolysis (%) = 100 × (Abs − Abs0)/(Abs100 − Abs0) where Abs, Abs0, and Abs100 are the absorbance of the test samples, of the suspension treated with isotonic phosphate–buffered saline (PBS), and of the suspension of complete hemolysis treated with distilled water, respectively. • In Vitro Essay Using Cell Cultures The murine Swiss albino fibroblasts (3T3) and the squamous cell carcinoma (A431) cell lines were obtained from Celltec UB. Cells were grown in DMEM medium (4.5 g/L glucose) supplemented with 10% (v/v) FBS, 2 mM L-glutamine, 100 U/mL penicillin, and 100 µg/mL streptomycin at 37 °C with 5% CO2. Cells were routinely cultured in 75 cm^2 culture flasks and were trypsinized using trypsin–EDTA when the cells reached approximately 80% confluence. The trypan blue assay, which allows for the direct identification and enumeration of the live (unstained) and dead (blue) cells in the cell population, was used to evaluate the viability of the cells in the cell suspension obtained. • - Cell Viability Assays Cell lines of 3T3 (1 × 10^5 cells/mL) and A431 (5 × 10^4 cells/mL) were grown at defined densities in the 60 central wells of a 96-well plate. The cells were incubated for 24 h in 5% CO2 at 37 °C. Then, the spent medium was removed, and the cells were incubated for 24 h, with their corresponding compound solutions (1 mg/mL) previously diluted in a minimum amount of DMF (dimethylformamide) and then in DMEM medium supplemented with 5% FBS (100 µL) at the required concentration range (80 or 250 µg/mL). […]

A further data set relates to human erythrocytes. As to the kind of experiment: Hemolysis assay with human erythrocytes. Format: cell-based. The following applies: from 10 to 80 µg/mL. The procedure:
as §1, §2

Data set [2] deals with A431 cell line (squamous cell carcinoma). As to the kind of experiment: Cell viability, MTT assay, A431. Format: cell-based. The following applies: Homo sapiens, A-431, 24 h, 24 h incubation, MTT endpoint, A431; read-out: IC50 (MTT) A431. Here is the method:
(§3) Two different endpoints, 3-(4,5-dimethyl-2-thiazolyl)-2,5-diphenyltetrazolium bromide (MTT) and neutral red uptake (NRU), were used to assess differences in cell-induced cytotoxicity. […] In addition, NRU evaluates the interaction of these drugs with the plasmatic membrane. Cell responses were determined from the MTT [16] and NRU [17] assays, using the two proposed cell lines. Cytotoxicity assays were performed at concentrations equal to 80 and 250 µg/mL. The IC50 value, referring to the half-maximal inhibitory concentration, was determined as a key parameter in cytotoxicity studies (Table 1). It plays a crucial role in evaluating cell viability and assessing cellular responses to various drugs or toxins. For cases where IC50 values were below 80 µg/mL, additional studies at lower concentrations were conducted to accurately determine these values. […] The selectivity index (SI), used as a measurement of action against the tumor cell line in comparison with a normal cell line, was also included.
as §2, with “°C.” for “°C. Then, the spent medium was removed, and the cells were incubated for 24 h, with their corresponding compound solutions (1 mg/mL) previously diluted in a minimum amount of DMF (dimethylformamide) and then in DMEM medium supplemented with 5% FBS (100 µL) at the required concentration range (80 or 250 µg/mL).”
(In general: Tetrazolium dyes change colour on reduction, which living cells bring about.)

The test system of data set [3] is murine Swiss albino fibroblast (3T3) cell line. As to the kind of experiment: Cell viability, MTT assay, 3T3. Format: cell-based. The following applies: Mus musculus, 24 h, 24 h incubation, MTT endpoint. The procedure: as §3
as §2, with “°C.” for “°C. Then, the spent medium was removed, and the cells were incubated for 24 h, with their corresponding compound solutions (1 mg/mL) previously diluted in a minimum amount of DMF (dimethylformamide) and then in DMEM medium supplemented with 5% FBS (100 µL) at the required concentration range (80 or 250 µg/mL).”

Data set [4] relates to A431 cell line (squamous cell carcinoma). As to the kind of experiment: Cell viability, NRU assay, A431. The data set is classed as cell-based, human. The procedure:
as §3
as §2, with “°C.” for “°C. Then, the spent medium was removed, and the cells were incubated for 24 h, with their corresponding compound solutions (1 mg/mL) previously diluted in a minimum amount of DMF (dimethylformamide) and then in DMEM medium supplemented with 5% FBS (100 µL) at the required concentration range (80 or 250 µg/mL).”

The test system of data set [5] is murine Swiss albino fibroblast (3T3) cell line. As to the kind of experiment: Cell viability, NRU assay, 3T3. Format: cell-based. The conditions noted are these: Mus musculus, 24 h incubation, NRU endpoint. The procedure: as §3
as §2, with “°C.” for “°C. Then, the spent medium was removed, and the cells were incubated for 24 h, with their corresponding compound solutions (1 mg/mL) previously diluted in a minimum amount of DMF (dimethylformamide) and then in DMEM medium supplemented with 5% FBS (100 µL) at the required concentration range (80 or 250 µg/mL).”

Data set [6] has as its system squamous carcinoma cells (A431) in comparison with the fibroblast (3T3) cell line. Set-up: method as in PMID 38731527. The conditions noted are these: cited from earlier work.

≈ marks a conversion by molar mass, not a printed value.

`CC(C)(C)N1CC(CCl)C(Cl)(Cl)C1=O` (stereo not drawn) [Compound 2]: the hemolysis at 10 µg/mL in data set [1] is 0.02%. For the same molecule, in the data set on human erythrocytes, the “change of hemolytic response as concentration increased” value is recorded as “three-”. Besides, the IC50 (in general, the concentration that gives 50% inhibition) is more than 250 µg/mL in data set [2]; more than 250 µg/mL in data set [3]; 232 ± 4.23 µg/mL (≈ 896 µM) in data set [4] (Homo sapiens, A-431, 24 h, 24 h incubation, NRU endpoint, A431); more than 250 µg/mL in data set [5]. Moreover, in data set [4] (250 µg/mL, 24 h, A431 vs 3T3, NRU), the “SI250, pseudo-selectivity index (NRU)” value is reported as “highest SI250 values”. Moreover, the “SI (NRU), selectivity index” value in data set [4] (SI = IC50 (3T3)/IC50 (A431), NRU) was more than 1.08. Besides, the “IC50 (lowest values among five products)” value in data set [6] is 100 to 250 µg/mL.
